# Literature values, collected in patent publication US7332526B2 (Allergan, Inc., priority 2003, dated 2008).
# No end group written: not given here.
# B1: TFF2: human trefoil factor family peptide containing two trefoil domains, produced by mucus-producing cells of stomach (protein, UniProt Q03403 24-129, looked up)
# Trefoil factor 2: EKPSPCQCSRLSPHNRTNCGFPGITSDQCFDNGCCFDSSVTGVPWCFHPLPKQESDQCVMEVSDRRNCGYPGISPEECASRKCCFSNFIFEVPWCFFPKSVEDCHY
# What was measured:
# [1] = in vivo
# [2] = test system: wounded corneal epithelial cells; conditions: in vitro, rabbit cells
Molecule,hyperemia and other irritating side effects compared to certain prostaglandins [1],migration of wounded corneal epithelial cells [2]
CCNC(=O)CCC/C=C\C[C@@H]1[C@@H](/C=C/[C@@H](O)CCc2ccccc2)[C@H](O)C[C@@H]1O [bimatoprost],significantly less hyperemia and other irritating side effects,–
"TFF3: human trefoil factor family peptide with one trefoil domain, produced by goblet cells of small and large intestine (EEYVGLSANQCAVPAKDRVDCGYPHVTPKECNNRGCCFDSRIPGVPWCFKPLQEAECTF; ends and bridges not checked; cysteine pairing not given here; UniProt Q07654 22-80, looked up)",–,promote the migration
B1,–,promote the migration
